This note sets out measurements from paper PMC10447463, “Data-mining unveils structure–property–activity correlation of viral infectivity enhancing self-assembling peptides” (Nature Communications, 2023).

Read-outs that look alike come from different tables or passages of the source.

Data set [1] is classed as physicochemical. On the set-up: key to Fibril / Fibril Formation / TEM 2cat / Fibril: 1 = fibrils present; 0 non-fibrillar structures. As to conditions: for Fibril / Fibril / Fibril Formation: TEM; for Fibril / Fibril Formation: 1 mg/mL, uranyl acetate stain, qualitative.
Data set [2] has as its system HIV-1 infection of TZM-bl cells. The data set is described as follows: HIV-1 infectivity enhancement assay, β-galactosidase luminescence. It counts as cell-based. Particulars: for Rel-EFC / Log10 Infection Rel EFC: 1.3 µM peptide; for Rel-EFC: infection relative to EF-C (QCKIKQIINMWQ = 1); for Log10 Infection Rel EFC: log10 of infection relative to EF-C; for Log Infectivity: Fig. S7 panel A (plotted against β-sheet content), Log10 infection relative to EF-C, TZM-bl cells, asymmetric std dev errors; for Log10 Infection Rel EF-C: HIV-1 infection of TZM-bl cells; for Abs. Inf.: absolute infection signal, HIV-1 on TZM-bl cells, β-galactosidase luminescence; for Log10 Inf. rel. to EF-C: log10 of HIV-1 infection of TZM-bl cells relative to EF-C (EF-C = 0).

Data set [3] can be described thus: Turbidity, derived count rate of scattered light. The class given is physicochemical. As to conditions: for Count Rate / kcps: derived count rate of scattered light at 633 nm, 173°, from zeta-potential measurement, 0.1 mg/mL in 1 mM KCl after 1 d at 1 mg/mL in PBS, turbidity / microscopic aggregation, mean of triplicate. In outline: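 Samples: 1 mg/mL in PBS pH 7.4 (from DMSO), 1 d at RT, then diluted in 1 mM KCl immediately before measurement. Triplicates, two independent runs averaged.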

The mark [4] stands for this setting: FigS12 panel A, fibril category by TEM.
Where [5] appears, read: 1 = fibrils present, 0 = non-fibrillar.
The mark [6] stands for this setting: 1 = fibrils present, 0 = non-fibrillar structures.
Where [7] appears, read: Log10 of infection rate relative to EF-C, Figure 3A source data.
The mark [8] stands for this setting: infection rate relative to EF-C, log10, data of Figure 2D.
The mark [9] stands for this setting: infection rate relative to EF-C, log10, source data of Figure 2C.
Setting [10] is: Log10 of derived count rate of scattered light (turbidity).
Setting [11] is: turbidity, Log10 of derived count rate of scattered light, Figure 3A source data.
The mark [12] stands for this setting: turbidity, log10 of derived count rate of scattered light.

As to QCKIKQII, the “TEM 2cat” value in data set [1] (Fig S10 panel D) and in data set [1] (setting [4]) was 1 throughout. Besides, the Fibril in data set [1] (FigS12 panel B), in data set [1] (setting [5]) and in data set [1] (setting [6]) was 1 each time. The “Fibril / Fibril Formation” value in data set [1] stood at 1. The Rel-EFC in data set [2] is given as 0,01. For the same sequence, the “Log10 Infection Rel EFC” value in data set [2] was -2,19. Also, the “Log Infectivity” value in data set [2] is on record as -2.189. Further, the “Log10 Infection Rel EF-C” value is -2.19 in data set [2] (setting [7]), -2.189 in data set [2] (setting [8]) and -2.189 in data set [2] (setting [9]). In data set [2], the “Abs. Inf.” value amounted to 206.7. Moreover, the “Log10 Inf. rel. to EF-C” value in data set [2] was -2.189. Also, the “Log10 Count Rate” value in data set [3] (setting [10]), in data set [3] (setting [11]) and in data set [3] (setting [12]) was 2.479 throughout. Also, the “Count Rate / kcps” value in data set [3] amounted to 301 kcps.

For the sequence NMWQKVGTPL, the “TEM 2cat” value in data set [1] (Fig S10 panel D) and in data set [1] (setting [4]) was 0 throughout. Besides, the Fibril in data set [1] (FigS12 panel B), in data set [1] (setting [5]) and in data set [1] (setting [6]) was 0 in each case. The “Fibril / Fibril Formation” value in data set [1] came to 0. In addition, in data set [2], the Rel-EFC is given as 0,02. Moreover, the “Log10 Infection Rel EFC” value in data set [2] is -1,61. Besides, in data set [2], the “Log Infectivity” value was -1.607. Besides, the figures for the “Log10 Infection Rel EF-C” value in data set [2] (setting [7]), in data set [2] (setting [8]) and in data set [2] (setting [9]) were -1.61, -1.607 and -1.607, respectively. Further, in data set [2], the “Abs. Inf.” value came out at 276.7. The “Log10 Inf. rel. to EF-C” value in data set [2] is listed as -1.607. Besides, the “Log10 Count Rate” value in data set [3] (setting [10]), in data set [3] (setting [11]) and in data set [3] (setting [12]) was 1.431 each time. In addition, the “Count Rate / kcps” value in data set [3] was found to be 27 kcps.

With RPRGLLLGNLR, the “TEM 2cat” value in data set [1] (Fig S10 panel D) and in data set [1] (setting [4]) was 0 throughout. The Fibril in data set [1] (FigS12 panel B), in data set [1] (setting [5]) and in data set [1] (setting [6]) was 0 throughout. In addition, the “Fibril / Fibril Formation” value in data set [1] was 0. Moreover, the Rel-EFC in data set [2] was 0,05. For the same sequence, in data set [2], the “Log10 Infection Rel EFC” value is listed as -1,32. Also, the “Log Infectivity” value in data set [2] is on record as -1.3163. Also, the entries for the “Log10 Infection Rel EF-C” value in data set [2] (setting [7]), in data set [2] (setting [8]) and in data set [2] (setting [9]) were -1.32, -1.3163 and -1.3163, respectively. Moreover, the “Abs. Inf.” value in data set [2] came to 716.7. Besides, in data set [2], the “Log10 Inf. rel. to EF-C” value was -1.3163. Besides, the “Log10 Count Rate” value in data set [3] (setting [10]), in data set [3] (setting [11]) and in data set [3] (setting [12]) was 2.322 each time. Moreover, the “Count Rate / kcps” value in data set [3] amounted to 210 kcps.

Take EIEIEIEI: the “TEM 2cat” value in data set [1] (Fig S10 panel D) and in data set [1] (setting [4]) was 1 in each case. The Fibril in data set [1] (FigS12 panel B), in data set [1] (setting [5]) and in data set [1] (setting [6]) was 1 in each case. Also, in data set [1], the “Fibril / Fibril Formation” value was found to be 1. In addition, the Rel-EFC in data set [2] is 0,02. For the same sequence, in data set [2], the “Log10 Infection Rel EFC” value is recorded as -1,75. In addition, in data set [2], the “Log Infectivity” value is reported as -1.748. For the same sequence, the results for the “Log10 Infection Rel EF-C” value in data set [2] (setting [7]), in data set [2] (setting [8]) and in data set [2] (setting [9]) were -1.75, -1.748 and -1.748, respectively. Moreover, the “Log10 Inf. rel. to EF-C” value in data set [2] was -1.748. For the same sequence, the “Log10 Count Rate” value in data set [3] (setting [10]), in data set [3] (setting [11]) and in data set [3] (setting [12]) was 2.731 throughout. Further, in data set [3], the “Count Rate / kcps” value was determined as 538 kcps.
